The structures appear in SMILES notation. Where only a bound is given, the exact number is not on record here.

The first assay is described as follows: Compound was tested for inhibition of [125I]eledoisin radioligand binding to NK3 receptor from gerbil cortex.
As to `Cc1cc(C)cc(C(=O)N2CC[C@H](NCc3cnc4ccccc4c3)C[C@H]2Cc2ccccc2)c1` [{(2R,4S)-2-Benzyl-4-[(quinolin-3-ylmethyl)-amino]-piperidin-1-yl}-(3,5-dimethyl-phenyl)-methanone], the IC50 (usually the point on the concentration scale where inhibition reaches its midpoint) is 10000 nM.

The next assay can be described thus: Compound was tested for inhibition of NK1 receptor from gerbil midbrain; NT means not tested.
Regarding `O=S(=O)(c1cc(C(F)(F)F)cc(C(F)(F)F)c1)N1CC[C@H](NCc2ccnc3ccccc23)C[C@H]1Cc1ccccc1` [[(2R,4S)-2-Benzyl-1-(3,5-bis-trifluoromethyl-benzenesulfonyl)-piperidin-4-yl]-quinolin-4-ylmethyl-amine], the IC50 was > 10000 nM.
Still for that read-out and setting: the same measure for `CN(C)CCCOC(=O)N[C@H]1CCN(C(=O)c2cc(C(F)(F)F)cc(C(F)(F)F)c2)[C@H](Cc2ccccc2)C1` [[(2R,4S)-2-Benzyl-1-(3,5-bis-trifluoromethyl-benzoyl)-piperidin-4-yl]-carbamic acid 3-dimethylamino-propyl ester]: 11 nM; for `O=C(c1cc(C(F)(F)F)cc(C(F)(F)F)c1)N1CC[C@H](NCc2ccnc3ccccc23)C[C@H]1Cc1ccccc1` [{(2R,4S)-2-Benzyl-4-[(quinolin-4-ylmethyl)-amino]-piperidin-1-yl}-(3,5-bis-trifluoromethyl-phenyl)-methanone]: 17 nM.
In turn, `O=C(c1cccc(Cl)c1)N1CC[C@H](NCc2ccnc3ccccc23)C[C@H]1Cc1ccccc1` [{(2R,4S)-2-Benzyl-4-[(quinolin-4-ylmethyl)-amino]-piperidin-1-yl}-(3-chloro-phenyl)-methanone] showed an IC50 of 54 nM.
The molecule `Cc1cc(C)cc(C(=O)N2CC[C@H](NCc3ccncc3)C[C@H]2Cc2ccccc2)c1` [{(2R,4S)-2-Benzyl-4-[(pyridin-4-ylmethyl)-amino]-piperidin-1-yl}-(3,5-dimethyl-phenyl)-methanone] returned a concentration for half-maximal inhibition (IC50) of 210 nM.
Molecule `O=C(Cc1ccccc1)N1CC[C@H](NCc2ccnc3ccccc23)C[C@H]1Cc1ccccc1` [1-{(2R,4S)-2-Benzyl-4-[(quinolin-4-ylmethyl)-amino]-piperidin-1-yl}-2-phenyl-ethanone] registered a half-maximal inhibitory concentration (IC50) of 3300 nM. This IC50 is about 16-fold higher than that of the molecule before.
Still for that read-out and setting: under `COc1cc(CC(=O)N[C@H]2CCN(C(=O)c3cc(C)cc(C)c3)[C@H](Cc3ccccc3)C2)cc(OC)c1` [N-[(2R,4S)-2-Benzyl-1-(3,5-dimethyl-benzoyl)-piperidin-4-yl]-2-(3,5-dimethoxy-phenyl)-acetamide] stands 12 nM; under `O=C(Nc1ccccc1)N[C@H]1CCN(C(=O)c2cc(Cl)cc(Cl)c2)[C@H](Cc2ccccc2)C1` [1-[(2R,4S)-2-Benzyl-1-(3,5-dichloro-benzoyl)-piperidin-4-yl]-3-phenyl-urea], 72 nM; under `Cc1cc(C)cc(C(=O)N2CC[C@H](NCc3cc4ccccc4cn3)C[C@H]2Cc2ccccc2)c1` [{(2R,4S)-2-Benzyl-4-[(isoquinolin-3-ylmethyl)-amino]-piperidin-1-yl}-(3,5-dimethyl-phenyl)-methanone], 19 nM.
`O=C(c1cccc2ccccc12)N1CC[C@H](NCc2ccnc3ccccc23)C[C@H]1Cc1ccccc1` [{(2R,4S)-2-Benzyl-4-[(quinolin-4-ylmethyl)-amino]-piperidin-1-yl}-naphthalen-1-yl-methanone]: the half-inhibitory concentration (IC50) was determined as 110 nM.
Take `CC(C)NC(=O)N[C@H]1CCN(C(=O)c2cc(C(F)(F)F)cc(C(F)(F)F)c2)[C@H](Cc2ccccc2)C1` [1-[(2R,4S)-2-Benzyl-1-(3,5-bis-trifluoromethyl-benzoyl)-piperidin-4-yl]-3-isopropyl-urea]: the 50% inhibitory concentration (IC50) was determined as 20 nM.
Still for that read-out and setting: under `O=C(c1cc(Cl)cc(Cl)c1)N1CC[C@H](NCc2ccnc3ccccc23)C[C@H]1Cc1ccccc1` [{(2R,4S)-2-Benzyl-4-[(quinolin-4-ylmethyl)-amino]-piperidin-1-yl}-(3,5-dichloro-phenyl)-methanone] stands 26 nM; under `O=C(c1cc(O)cc(O)c1)N1CC[C@H](NCc2ccnc3ccccc23)C[C@H]1Cc1ccccc1` [{(2R,4S)-2-Benzyl-4-[(quinolin-4-ylmethyl)-amino]-piperidin-1-yl}-(3,5-dihydroxy-phenyl)-methanone], 520 nM; under `O=C(c1cc(Cl)cc(Cl)c1)N1CC[C@H](N(Cc2ccnc3ccccc23)C(=O)C(F)(F)F)C[C@H]1Cc1ccccc1` [N-[(2R,4S)-2-Benzyl-1-(3,5-dichloro-benzoyl)-piperidin-4-yl]-2,2,2-trifluoro-N-quinolin-4-ylmethyl-acetamide], 600 nM.
Consider `O=C(c1cc(Br)cc(Br)c1)N1CC[C@H](NCc2ccnc3ccccc23)C[C@H]1Cc1ccccc1` [{(2R,4S)-2-Benzyl-4-[(quinolin-4-ylmethyl)-amino]-piperidin-1-yl}-(3,5-dibromo-phenyl)-methanone], for which 24 nM corresponded to half-maximal inhibition (IC50).
In turn, `COc1cc(OC)cc(C(=O)N2CC[C@H](NCc3ccnc4ccccc34)C[C@H]2Cc2ccccc2)c1` [{(2R,4S)-2-Benzyl-4-[(quinolin-4-ylmethyl)-amino]-piperidin-1-yl}-(3,5-dimethoxy-phenyl)-methanone] had a half-inhibitory concentration (IC50) of 92 nM.
Still for that read-out and setting: under `NC(=O)CN[C@H]1CCN(C(=O)c2cc(C(F)(F)F)cc(C(F)(F)F)c2)[C@H](Cc2ccccc2)C1` [2-[(2R,4S)-2-Benzyl-1-(3,5-bis-trifluoromethyl-benzoyl)-piperidin-4-ylamino]-acetamide] stands 10 nM; under `CN(Cc1ccnc2ccccc12)[C@H]1CCN(C(=O)c2cc(Cl)cc(Cl)c2)[C@H](Cc2ccccc2)C1` [[(2R,4S)-2-Benzyl-4-(methyl-quinolin-4-ylmethyl-amino)-piperidin-1-yl]-(3,5-dichloro-phenyl)-methanone], 390 nM.
For the molecule `FC(F)(F)c1cc(CN2CC[C@H](NCc3ccnc4ccccc34)C[C@H]2Cc2ccccc2)cc(C(F)(F)F)c1` [[(2R,4S)-2-Benzyl-1-(3,5-bis-trifluoromethyl-benzyl)-piperidin-4-yl]-quinolin-4-ylmethyl-amine], half-maximal inhibition (IC50) was put at 880 nM.
Same read-out and setting: under `Cc1cc(C)cc(C(=O)N2CC[C@H](NCc3ccccc3)C[C@H]2Cc2ccccc2)c1` [((2R,4S)-2-Benzyl-4-benzylamino-piperidin-1-yl)-(3,5-dimethyl-phenyl)-methanone] stands 220 nM.
Still for that read-out and setting: under `O=C(c1ccc2ccccc2c1)N1CC[C@H](NCc2ccnc3ccccc23)C[C@H]1Cc1ccccc1` [{(2R,4S)-2-Benzyl-4-[(quinolin-4-ylmethyl)-amino]-piperidin-1-yl}-naphthalen-2-yl-methanone] stands 700 nM; under `O=C(Cc1ccccc1)N[C@H]1CCN(C(=O)c2cc(Cl)cc(Cl)c2)[C@H](Cc2ccccc2)C1` [N-[(2R,4S)-2-Benzyl-1-(3,5-dichloro-benzoyl)-piperidin-4-yl]-2-phenyl-acetamide], 60 nM; under `NCC(=O)N[C@H]1CCN(C(=O)c2cc(C(F)(F)F)cc(C(F)(F)F)c2)[C@H](Cc2ccccc2)C1` [2-Amino-N-[(2R,4S)-2-benzyl-1-(3,5-bis-trifluoromethyl-benzoyl)-piperidin-4-yl]-acetamide], 62 nM.

The nature of another assay: Inhibition of [3H]-SP radioligand binding to NK1 receptor from bovine retina.
As for `Cc1cc(C)cc(C(=O)N2CC[C@H](NCc3cnc4ccccc4c3)C[C@H]2Cc2ccccc2)c1` [{(2R,4S)-2-Benzyl-4-[(quinolin-3-ylmethyl)-amino]-piperidin-1-yl}-(3,5-dimethyl-phenyl)-methanone], the IC50 came out at 30 nM. That is a double-digit nanomolar value.
